Like-named read-outs stand apart in the source and are kept apart here. Where a SMILES comes first, the peptide text is derived from it. [ ]: non-standard residue; d: D form. Pip = O=C(O)[C@@H]1CCCCN1; AEEA = NCCOCCOCC(=O)O

The values that follow come from US10174077B2, “Method of inhibiting activity of cell surface fibroblast activation protein alpha” (The Board of Regents of the University of Oklahoma, priority 2006, dated 2019).

One experiment concerns the target T1, APCE (Homo sapiens, UniProt Q12884).
T1 construct: APCE lacks the first 23 amino terminal residues of FAP; tissue Sylvan Goldman Blood Institute (source of the plasma); host or cells: human plasma
T1 sequence (Q12884 24-760 limits assumed): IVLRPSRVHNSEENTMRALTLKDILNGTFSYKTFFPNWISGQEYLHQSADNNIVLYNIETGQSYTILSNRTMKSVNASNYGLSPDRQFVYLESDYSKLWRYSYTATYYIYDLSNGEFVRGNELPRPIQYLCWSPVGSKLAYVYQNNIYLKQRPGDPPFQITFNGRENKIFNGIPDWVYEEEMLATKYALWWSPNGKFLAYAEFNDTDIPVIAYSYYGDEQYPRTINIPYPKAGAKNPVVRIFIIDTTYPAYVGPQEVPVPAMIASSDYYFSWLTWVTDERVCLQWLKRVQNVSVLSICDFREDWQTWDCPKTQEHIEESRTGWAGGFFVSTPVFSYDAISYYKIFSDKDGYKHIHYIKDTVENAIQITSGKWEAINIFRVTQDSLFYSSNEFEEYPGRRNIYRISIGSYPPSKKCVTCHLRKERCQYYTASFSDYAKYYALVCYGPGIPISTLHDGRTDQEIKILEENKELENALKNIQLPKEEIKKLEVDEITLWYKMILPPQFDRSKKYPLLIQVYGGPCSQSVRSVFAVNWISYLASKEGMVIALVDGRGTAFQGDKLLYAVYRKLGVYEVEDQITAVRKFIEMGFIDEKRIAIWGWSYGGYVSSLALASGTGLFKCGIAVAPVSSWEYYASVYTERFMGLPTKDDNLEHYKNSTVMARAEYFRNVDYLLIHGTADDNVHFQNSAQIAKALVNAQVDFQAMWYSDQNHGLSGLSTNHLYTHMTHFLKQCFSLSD
Description: APCE enzyme assay with fluorescent AMC substrates, competitive inhibition constants. Format: biochemical. The note with it: for Selectivity, Ki (DPPIV)/Ki (APCE/FAP): ratio of Ki values. How it is done: (§1) Fluorescence was monitored with time at excitation and emission wavelengths of 360 and 460 nm using a black-sided, 96-well plate in a BIO-TEK FL600 fluorescence plate reader. For standard curves, dilutions of AMC (7-amino-4-methylcoumarin) were prepared in the same assay buffer and corresponding fluorescence was measured. The substrates in five different concentrations were mixed with four different concentrations of inhibitors around the expected Ki values; the enzyme was added and enzymatically released AMC fluorescence was recorded. […] Therefore, enzyme kinetic parameters were computed by fitting data to the following equation, employing the program PRISM, GraphPad: […]

The next experiment deals with DPPIV (Homo sapiens, UniProt P27487). Description: DPPIV enzyme assay with fluorescent AMC substrates, inhibition constants. The experiment is classed as biochemical. How it is done:
as §1

For experiment [1], the target named is T2, cell surface FAP of W138 fibroblast cells (Homo sapiens, UniProt Q12884).
T2 construct: FAP proteolytic activity expressed on the surface of living fibroblast cells; endogenous in cells; host or cells: W138 (WI-38) fibroblasts
T2 sequence (Q12884 1-760): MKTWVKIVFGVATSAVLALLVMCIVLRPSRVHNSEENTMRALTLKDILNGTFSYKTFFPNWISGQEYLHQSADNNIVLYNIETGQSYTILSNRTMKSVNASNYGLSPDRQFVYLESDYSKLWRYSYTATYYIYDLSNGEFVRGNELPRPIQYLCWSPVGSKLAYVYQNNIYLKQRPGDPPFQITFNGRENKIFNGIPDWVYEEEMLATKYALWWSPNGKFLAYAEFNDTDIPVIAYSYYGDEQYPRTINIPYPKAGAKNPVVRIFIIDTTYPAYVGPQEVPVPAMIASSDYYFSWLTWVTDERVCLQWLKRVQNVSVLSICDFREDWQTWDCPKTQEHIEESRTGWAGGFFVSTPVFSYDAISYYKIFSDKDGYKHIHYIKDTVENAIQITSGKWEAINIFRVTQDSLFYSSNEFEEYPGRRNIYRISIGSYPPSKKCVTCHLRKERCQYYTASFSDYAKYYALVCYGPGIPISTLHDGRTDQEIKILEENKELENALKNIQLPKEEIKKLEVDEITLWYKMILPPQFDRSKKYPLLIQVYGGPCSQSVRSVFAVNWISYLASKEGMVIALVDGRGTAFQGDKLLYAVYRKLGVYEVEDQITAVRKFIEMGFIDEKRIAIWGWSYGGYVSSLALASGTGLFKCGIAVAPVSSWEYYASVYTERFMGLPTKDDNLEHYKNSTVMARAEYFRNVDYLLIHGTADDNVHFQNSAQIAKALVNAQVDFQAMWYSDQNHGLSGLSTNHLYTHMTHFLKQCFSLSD
Description: Cell surface FAP activity of fibroblasts (cleavage of Ac-Arg-peg-Gly-Pro-AMC). Format: cell-based. How it is done: FIG. 6 is a graph showing cell surface FAP activity of fibroblasts. W138 Cells were seeded into opaque black 96 well cell culture plates and grown to confluency. Cells were washed with Hanks Balanced Salt Solution after which either the inhibitor compound Ac-Arg-(8-amino-3,6-dioxaoctanoyl)-D-Ala-L-boroPro, or buffer, was added. The FAP substrate, Ac—R-peg-G-P-AMC, was added and fluorescence was measured with time. The inhibitor was added to one set of cells 2 hours after substrate addition (see arrow). O.D. 360/460 was converted to APCE Units using a standard curve.
FIG. 6, for example, illustrates that FAP proteolytic activity expressed on the surface of living fibroblast cells can readily be inhibited by the inhibitor Ac-Arg-peg-D-Ala-boroPro (a.k.a. M83). We measured FAP activity by use of a synthetic substrate, Ac-Arg-peg-Gly-Pro-amidomethyl coumarin, which produces fluorescence upon cleavage of the bond between proline and the amidomethylcoumarin by FAP. In these experiments we made a treatment and then measured any fluorescence generated over several hours. The figure compares three treatments: • (1) “Control”: This curve represents addition of the substrate to live cells bathed in culture media with no other treatment. The synthetic substrate cleavage is observed as reflected by measurement of the fluorescence generated that is expressed as APCE Units.

The target of experiment [2] is T3, cell surface FAP of MDA-MB-435 breast cancer cells (Homo sapiens, UniProt Q12884).
T3 construct: cultured breast cancer cells also have FAP activity on their cell surface; endogenous in cells; host or cells: MDA-MB-435 cells
T3 sequence (Q12884 1-760): T2 sequence (Q12884 1-760)
Description: Cell surface FAP activity of breast cancer cells (cleavage of Ac-Arg-peg-Gly-Pro-AMC). The note with it: live MDA-MB-435 breast cancer cells, inhibitor added with substrate. The experiment is classed as cell-based. How it is done:
FIG. 7 is a graph showing cell surface FAP activity of breast cancer cells. MDA-MB-435 cells were seeded into opaque black 96 well cell culture plates and grown to confluency. Cells were washed with Hanks Balanced Salt solution after which either the inhibitor compound Ac-Arg-(8-amino-3,6-dioxaoctanoyl)-D-Ala-L-boroPro, or buffer, was added. The FAP substrate, Ac—R-peg-G-P-AMC, was added and fluorescence measured with time. O.D. 360/460 was converted to APCE Units using a standard curve.
In FIG. 7, the experiment was performed in exactly the same way as for FIG. 6, except live breast cancer cells were used.

[3] abbreviates: best-fit value ± standard error, read-out: Ki, inhibition of APCE activity.

DPPIV, sequence (P27487 whole entry, species assumed): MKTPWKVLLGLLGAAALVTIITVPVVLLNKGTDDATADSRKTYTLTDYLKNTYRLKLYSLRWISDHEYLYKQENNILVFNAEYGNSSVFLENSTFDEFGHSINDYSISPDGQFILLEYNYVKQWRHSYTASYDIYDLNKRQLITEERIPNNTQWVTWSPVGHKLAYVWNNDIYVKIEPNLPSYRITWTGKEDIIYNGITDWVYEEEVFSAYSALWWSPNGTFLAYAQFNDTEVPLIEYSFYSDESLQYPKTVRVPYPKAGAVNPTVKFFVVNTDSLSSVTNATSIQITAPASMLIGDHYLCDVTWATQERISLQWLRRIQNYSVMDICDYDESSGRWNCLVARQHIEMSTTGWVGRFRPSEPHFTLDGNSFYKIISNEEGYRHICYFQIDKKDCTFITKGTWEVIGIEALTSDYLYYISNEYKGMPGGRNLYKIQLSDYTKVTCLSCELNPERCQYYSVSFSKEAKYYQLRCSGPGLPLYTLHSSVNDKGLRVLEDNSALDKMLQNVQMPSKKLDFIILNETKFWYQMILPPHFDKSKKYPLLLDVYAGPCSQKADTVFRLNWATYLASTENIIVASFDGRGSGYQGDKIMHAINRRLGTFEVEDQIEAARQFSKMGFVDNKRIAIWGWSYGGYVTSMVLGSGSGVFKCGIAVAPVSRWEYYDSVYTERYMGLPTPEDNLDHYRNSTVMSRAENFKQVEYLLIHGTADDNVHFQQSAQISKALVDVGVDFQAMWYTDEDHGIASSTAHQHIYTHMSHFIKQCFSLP

Consider FG-peg-G-pyrrolidide [Inhibitor (6)], for which the Ki on APCE (setting [3]) was 703 ± 68 µM.

For the compound `CC(=O)N[C@@H](CCCNC(=N)N)C(=O)NCCOCCOCC(=O)N[C@H](CC(=O)O)C(=O)N1CCC[C@H]1B(O)O` [Ac-Arg-peg-D-Asp-L-boroPro], the “Selectivity, Ki (DPPIV)/Ki (APCE/FAP)” value on APCE is listed as 5.2. The values for the Ki on APCE (read-out: APCE/FAP Ki) and at DPPIV were 1.38 µM and 7130 nM, respectively.

As for `CC(=O)NC(CCCNC(=N)N)C(=O)NCCOCCOCC(=O)NC(C)C(=O)N1CCCC1B(O)O` (single isomer, unassigned) [Ac-Arg-peg-D-Ala-D-boroPro], the “Selectivity, Ki (DPPIV)/Ki (APCE/FAP)” value at APCE turned out to be 108.

On to `CC(=O)N[C@@H](CCCNC(=N)N)C(=O)NCC(=O)NCC(=O)N1CCC[C@H]1B(O)O` [Ac-Arg-Gly-Gly-L-boroPro], for which, at APCE, the “Selectivity, Ki (DPPIV)/Ki (APCE/FAP)” value was 18.7. Also, the Ki turned out to be 0.0172 µM on APCE (read-out: APCE/FAP Ki) and 322 nM at DPPIV.

In the case of `CC(=O)N[C@@H](CCCNC(=N)N)C(=O)NCCOCCOCC(=O)N[C@@H](CO)C(=O)NCC(=O)N1CCC[C@H]1B(O)O` [Ac-Arg-peg-Ser-Gly-L-boroPro], the “Selectivity, Ki (DPPIV)/Ki (APCE/FAP)” value on APCE was 319.

On to `CC(=O)NC(CCCNC(=N)N)C(=O)NCCOCCOCC(=O)NC(C)C(=O)N1CCCC1B(O)O` (single isomer, unassigned) [Ac-Arg-peg-D-Ala-L-boroPro, acetyl-arg-8-amino-3,6-dioxaoctanoic acid-D-ala-L-boroPro], for which, at APCE, the “Selectivity, Ki (DPPIV)/Ki (APCE/FAP)” value was 1075. In addition, the Ki on APCE (read-out: APCE/FAP Ki) came out at 0.0057 µM; at DPPIV it was 6130 nM. Also, the “Cell surface FAP activity (substrate hydrolysis, fluorescence as APCE Units)” value was “inhibited cell surface FAP immediately” in experiment [1] (10 uM inhibitor added to fibroblasts 2 hrs after substrate, listed as Ac-Arg-(8-amino-3,6-dioxaoctanoyl)-D-Ala-L-boroPro); “immediately and completely arrested” in experiment [1] (10 uM inhibitor added to fibroblasts 2 hrs after substrate, listed as M83); “no substrate hydrolysis occurs” in experiment [1] (10 uM inhibitor added to live fibroblasts simultaneously with substrate, followed 5 hours); “completely inhibited” in experiment [2].

For the compound FR-peg-G-pyrrolidide [Inhibitor (5)], the Ki on APCE (setting [3]) amounted to 67.7 ± 5.8 µM.

As for `N=C(N)NCCC[C@H](NC(=O)[C@@H](N)Cc1ccccc1)C(=O)NCCOCCOCC(=O)NCC(=O)N1CCCC[C@H]1C(N)=O` [Inhibitor (11), FR-peg-G-pipecolinamide] (H-FR[AEEA]G[Pip]-NH2), the Ki on APCE (setting [3]) was above 1000 µM.

With Ac-Arg-peg-D-Ala-DL(75:25%)-boroPro, the Ki on APCE (read-out: APCE/FAP Ki) was 0.0183 µM.

“FR-peg-G-[r]fluoropyrrolidide [Inhibitor (8)]”: the Ki on APCE (setting [3]) was 53.8 ± 4.9 µM.

As to `CC(=O)NC(CCCNC(=N)N)C(=O)NCCOCCOCC(=O)NC(C)C(=O)N1CCCC1B(O)O` [Ac-Arg-peg-D-Ala-DL(50:50%)-boroPro], at APCE, the “Selectivity, Ki (DPPIV)/Ki (APCE/FAP)” value is given as 1176. For the same compound, the Ki on APCE (read-out: APCE/FAP Ki) was found to be 0.0095 µM; on DPPIV, 11200 nM.

As for Ac-Arg-peg-D-Ala-DL(25:75%)-boroPro, at APCE (read-out: APCE/FAP Ki), the Ki was determined as 0.0077 µM.

“FR-peg-G-[s]fluoropyrrolidide [Inhibitor (9)]”: the Ki on APCE (setting [3]) was 55.3 ± 5.3 µM.

On to `CC(=O)NC(CCCNC(=N)N)C(=O)NCCOCCOCC(=O)NCC(=O)N1CCCC1B(O)O` (racemic) [Ac-Arg-peg-Gly-DL-boroPro], for which the “Selectivity, Ki (DPPIV)/Ki (APCE/FAP)” value at APCE turned out to be 371. Moreover, the results for the Ki at APCE (read-out: APCE/FAP Ki) and on DPPIV were 0.0031 µM and 1150 nM, respectively.

As for `CC(=O)N[C@@H](CCCNC(=N)N)C(=O)NCCOCCOCC(=O)NCC(=O)N1CCC[C@H]1B(O)O` [Ac-Arg-peg-Gly-L-boroPro], the “Selectivity, Ki (DPPIV)/Ki (APCE/FAP)” value on APCE is given as 244. In addition, the Ki came out at 0.0018 µM at APCE (read-out: APCE/FAP Ki) and 440 nM at DPPIV.

Consider `CC(=O)NC(CCCNC(=N)N)C(=O)NCC(=O)NCC(=O)N1CCCC1B(O)O` (racemic) [Ac-Arg-Gly-Gly-DL-boroPro], for which the “Selectivity, Ki (DPPIV)/Ki (APCE/FAP)” value at APCE was determined as 14.9. Moreover, the Ki was found to be 0.0229 µM on APCE (read-out: APCE/FAP Ki) and 341 nM at DPPIV.
